Laboratory results from ChEMBL document CHEMBL1201862, “PubChem BioAssay data set” (2004).
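All cell lines were grown in 96-well plates and treated with compound for 48 hours. Here, GI50 denotes the concentration required for 50% inhibition of growth.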 Active and inactive are the calls of the source. No stated cut-off is given here; in the data, active = GI50 up to about 1.1 µM and inactive = higher. Where a SMILES comes first, the peptide text is derived from it. The star is where a group is joined. Boc = CC(C)(C)OC(=O)*

Experiments:
Experiment in all cases: NCI-60 cell line screen, 48 h
[1] = test system: COLO 205
[2] = test system: ACHN
[3] = test system: XF498
[4] = test system: OVCAR-8
[5] = test system: SN12C
[6] = test system: M19-MEL
[7] = test system: A549
[8] = test system: M14
[9] = test system: SK-OV-3
[10] = test system: SNB-19
[11] = test system: TK-10
[12] = test system: DMS-273
[13] = test system: HOP-62
[14] = test system: CAKI-1
[15] = test system: UACC-257
[16] = test system: LOX IMVI
[17] = test system: HCT-116
[18] = test system: K562
[19] = test system: HOP-18
[20] = test system: IGROV-1
[21] = test system: EKVX
[22] = test system: SF-539
[23] = test system: HT-29
[24] = test system: SNB-75
[25] = test system: RXF 631
[26] = test system: KM12
[27] = test system: 786-0
[28] = test system: LXFL 529
[29] = test system: A498
[30] = test system: DLD-1
[31] = test system: UACC-62
[32] = test system: U-251
[33] = test system: HCC 2998
[34] = test system: RPMI-8226
[35] = test system: OVCAR-3
[36] = test system: SNB-78
[37] = test system: SK-MEL-28
[38] = test system: Malme-3M
[39] = test system: SW-620
[40] = test system: NCI-H522
[41] = test system: NCI-H460
[42] = test system: OVCAR-4
[43] = test system: HOP-92
[44] = test system: NCI-H23
[45] = test system: HL-60
[46] = test system: SF-268
[47] = test system: RXF 393
[48] = test system: SK-MEL-5
[49] = test system: UO-31
[50] = test system: NCI-H226
[51] = test system: SF-295
[52] = test system: OVCAR-5
[53] = test system: CCRF-CEM
[54] = test system: KM-20L2
[55] = test system: SR
[56] = test system: MOLT-4
[57] = test system: SK-MEL-2
[58] = test system: DMS-114
[59] = test system: HCT-15

## CC(=O)OCC1(C)C(OC(C)=O)CCC2(C)C(CC(OC(C)=O)C3=CCOC3=O)C(O)(CO)CCC12 (stereo not drawn)
[1]
  GI50: > 100 µM (inactive)
[2]
  GI50: > 100 µM (inactive)
[3]
  GI50: > 100 µM (inactive)
[4]
  GI50: > 100 µM (inactive)
[5]
  GI50: > 100 µM (inactive)
[6]
  GI50: > 100 µM (inactive)
[7]
  GI50: > 100 µM (inactive)
[8]
  GI50: > 100 µM (inactive)
[9]
  GI50: > 100 µM (inactive)
[10]
  GI50: > 100 µM (inactive)
[11]
  GI50: > 100 µM (inactive)
[12]
  GI50: > 100 µM (inactive)
[13]
  GI50: > 100 µM (inactive)
[14]
  GI50: > 100 µM (inactive)
[15]
  GI50: > 100 µM (inactive)
[16]
  GI50: > 100 µM (inactive)
[17]
  GI50: > 100 µM (inactive)
[18]
  GI50: > 100 µM (inactive)
[19]
  GI50: > 100 µM (inactive)
[20]
  GI50: > 100 µM (inactive)
[21]
  GI50: > 100 µM (inactive)
[22]
  GI50: > 100 µM (inactive)
[23]
  GI50: > 100 µM (inactive)
[24]
  GI50: > 100 µM (inactive)
[25]
  GI50: > 100 µM (inactive)
[26]
  GI50: > 100 µM (inactive)
[27]
  GI50: > 100 µM (inactive)
[28]
  GI50: > 100 µM (inactive)
[29]
  GI50: > 100 µM (inactive)
[30]
  GI50: > 100 µM (inactive)
[31]
  GI50: > 100 µM (inactive)
[32]
  GI50: > 100 µM (inactive)
[33]
  GI50: > 100 µM (inactive)
[34]
  GI50: > 100 µM (inactive)
[35]
  GI50: > 100 µM (inactive)
[36]
  GI50: > 100 µM (inactive)
[37]
  GI50: > 100 µM (inactive)
[38]
  GI50: > 100 µM (inactive)
[39]
  GI50: > 100 µM (inactive)
[40]
  GI50: > 100 µM (inactive)
[41]
  GI50: > 100 µM (inactive)
[42]
  GI50: > 100 µM (inactive)
[43]
  GI50: > 100 µM (inactive)
[44]
  GI50: > 100 µM (inactive)
[45]
  GI50: 61.5 µM (inactive)
[46]
  GI50: > 100 µM (inactive)
[47]
  GI50: > 100 µM (inactive)
[48]
  GI50: > 100 µM (inactive)
[49]
  GI50: > 100 µM (inactive)
[50]
  GI50: > 100 µM (inactive)
[51]
  GI50: > 100 µM (inactive)
[52]
  GI50: > 100 µM (inactive)
[53]
  GI50: 53.1 µM (inactive)
[54]
  GI50: > 100 µM (inactive)

## CC(C)(C)OC(=O)NC(Cc1ccc(O)cc1)C(=O)N1CCCC1C(=O)O (stereo not drawn) (Boc-Tyr-Pro-OH; configuration not given here)
[1]
  GI50: > 100 µM (inactive)
[2]
  GI50: > 100 µM (inactive)
[3]
  GI50: > 100 µM (inactive)
[4]
  GI50: > 100 µM (inactive)
[5]
  GI50: > 100 µM (inactive)
[55]
  GI50: > 100 µM (inactive)
[6]
  GI50: > 100 µM (inactive)
[7]
  GI50: > 100 µM (inactive)
[8]
  GI50: > 100 µM (inactive)
[9]
  GI50: > 100 µM (inactive)
[10]
  GI50: > 100 µM (inactive)
[11]
  GI50: > 100 µM (inactive)
[12]
  GI50: > 100 µM (inactive)
[13]
  GI50: > 100 µM (inactive)
[14]
  GI50: > 100 µM (inactive)
[15]
  GI50: > 100 µM (inactive)
[16]
  GI50: > 100 µM (inactive)
[17]
  GI50: > 100 µM (inactive)
[18]
  GI50: > 100 µM (inactive)
[19]
  GI50: > 100 µM (inactive)
[20]
  GI50: > 100 µM (inactive)
[21]
  GI50: > 100 µM (inactive)
[22]
  GI50: > 100 µM (inactive)
[23]
  GI50: > 100 µM (inactive)
[24]
  GI50: > 100 µM (inactive)
[25]
  GI50: > 100 µM (inactive)
[26]
  GI50: > 100 µM (inactive)
[27]
  GI50: > 100 µM (inactive)
[28]
  GI50: > 100 µM (inactive)
[29]
  GI50: > 100 µM (inactive)
[56]
  GI50: > 100 µM (inactive)
[30]
  GI50: > 100 µM (inactive)
[31]
  GI50: > 100 µM (inactive)
[32]
  GI50: > 100 µM (inactive)
[33]
  GI50: > 100 µM (inactive)
[34]
  GI50: > 100 µM (inactive)
[35]
  GI50: > 100 µM (inactive)
[36]
  GI50: > 100 µM (inactive)
[37]
  GI50: > 100 µM (inactive)
[38]
  GI50: > 100 µM (inactive)
[39]
  GI50: > 100 µM (inactive)
[40]
  GI50: > 100 µM (inactive)
[41]
  GI50: > 100 µM (inactive)
[42]
  GI50: > 100 µM (inactive)
[43]
  GI50: > 100 µM (inactive)
[44]
  GI50: > 100 µM (inactive)
[45]
  GI50: > 100 µM (inactive)
[46]
  GI50: > 100 µM (inactive)
[47]
  GI50: > 100 µM (inactive)
[48]
  GI50: > 100 µM (inactive)
[49]
  GI50: > 100 µM (inactive)
[57]
  GI50: > 100 µM (inactive)
[58]
  GI50: > 100 µM (inactive)
[50]
  GI50: > 100 µM (inactive)
[59]
  GI50: > 100 µM
[51]
  GI50: > 100 µM (inactive)
[52]
  GI50: > 100 µM (inactive)
[53]
  GI50: > 100 µM (inactive)
[54]
  GI50: > 100 µM (inactive)
